Assay results: US20230271950A1, “ANTIBACTERIAL PICOLINAMIDE COMPOUNDS” (University of Notre Dame Du Lac, priority 2020, published 2023)
Converted amounts (≈) assume the structure as drawn. Like-named read-outs stand apart in the source and are kept apart here.

What was measured:
[1] = tested on: Lactobacillus reuteri; experiment: MIC against gut bacterium Lactobacillus reuteri; format: cell-based; details: Limosilactobacillus reuteri; Lactobacillus reuteri strain HM-102; Table 7; read-out: MIC
[2] = tested on: Fusobacterium nucleatum; experiment: MIC against gut bacterium Fusobacterium nucleatum; format: cell-based; details: Fusobacterium nucleatum, Fusobacterium nucleatum strain HM-992; Table 7; read-out: MIC
[3] = tested on: Bacteroides fragilis; experiment: MIC against gut bacterium Bacteroides fragilis; format: cell-based; details: Bacteroides fragilis, Bacteroides fragilis strain HM-709; Table 7; read-out: MIC
[4] = tested on: Eubacterium sp.; experiment: MIC against gut bacterium Eubacterium sp.; format: cell-based; details: Eubacterium, Eubacterium sp. strain HM-178; Table 7; read-out: MIC
[5] = tested on: S. aureus ATCC29213; experiment: MIC against MSSA; format: cell-based, Staphylococcus aureus; details: Staphylococcus aureus; MSSA ATCC 29213; Table 10, unit inferred; read-out: Activity (MIC) against S. aureus
[6] = tested on: Veillonella sp. HM-49; experiment: MIC against gut bacterium Veillonella sp.; format: cell-based; details: SP.HM49; Veillonella sp. strain HM-49; Table 7; read-out: MIC
[7] = tested on: E. faecium NCTC7171; experiment: MIC against E. faecium; format: cell-based, Enterococcus faecium; details: Enterococcus faecium, NCTC7171; E. faecium NCTC 7171; Table 10, unit inferred; read-out: Activity (MIC) against E. faecium
[8] = tested on: Corynebacterium spp.; experiment: MIC against gut bacterium Corynebacterium spp.; format: cell-based; details: Corynebacterium, Corynebacterium spp. strain HM-784; Table 7
[9] = tested on: Bifidobacterium longum; experiment: MIC against gut bacterium Bifidobacterium longum; format: cell-based; details: Bifidobacterium longum, Bifidobacterium longum strain HM-846; Table 7; read-out: MIC
[10] = tested on: Lactobacillus gasseri; experiment: MIC against gut bacterium Lactobacillus gasseri; format: cell-based; details: Lactobacillus gasseri strain HM-644; Table 7; read-out: MIC
[11] = tested on: C. difficile; experiment: MIC by broth microdilution against C. difficile strains; format: cell-based, Clostridioides difficile; details: for MIC: Clostridioides difficile
[12] = tested on: MRSA (NRS70, NRS119); experiment: MIC against MRSA strains; format: cell-based, Staphylococcus aureus; details: Staphylococcus aureus

MIC [1]: 8 µg/mL (≈ 23.9 µM) | MIC [2]: 8 µg/mL (≈ 23.9 µM) | MIC [3]: 1 µg/mL (≈ 2.99 µM) | MIC [4]: > 16 µg/mL | MIC [5]: 0.06 µg/mL (≈ 0.18 µM) | MIC [6]: 4 µg/mL (≈ 12 µM) | MIC [7]: 0.06 µg/mL (≈ 0.18 µM) | MIC [8]: 0.5 µg/mL (≈ 1.5 µM) | MIC [9]: > 16 µg/mL | MIC [10]: > 16 µg/mL | MIC ([11]; ATCC43255, ATCC 43255, ribotype 087, Table 2 (SAR^1), read-out: MIC C. difficile): 0.25 µg/mL (≈ 0.748 µM) | MIC ([11]; ATCC43255, ATCC 43255, ribotype 087, Table 3 (SAR^2 and SAR^3), read-out: MIC C. difficile): 0.25 µg/mL (≈ 0.748 µM) | MIC ([11]; ATCC43255, C. difficile ATCC43255, Table 7, read-out: MIC): 0.25 µg/mL (≈ 0.748 µM) | MIC ([11]; ATCC43255, C. difficile ATCC 43255, read-out: MIC against C. difficile): 0.25 µg/mL (≈ 0.748 µM) | MIC ([11]; ATCC43598, C. difficile ATCC43598, Table 7, read-out: MIC): 0.0625 µg/mL (≈ 0.187 µM) | MIC ([11]; BAA1801, C. difficile BAA-1801, Table 7, read-out: MIC): 0.25 µg/mL (≈ 0.748 µM) | MIC ([11]; BAA1803, C. difficile BAA-1803, Table 7, read-out: MIC): 0.5 µg/mL (≈ 1.5 µM) | MIC ([11]; BAA1804, C. difficile BAA-1804, Table 7, read-out: MIC): 0.0625 µg/mL (≈ 0.187 µM) | MIC ([11]; BAA1812, C. difficile BAA-1812, Table 7, read-out: MIC): 0.125 µg/mL (≈ 0.374 µM) | MIC ([11]; BAA1814, C. difficile BAA-1814, Table 7, read-out: MIC): 0.125 µg/mL (≈ 0.374 µM) | MIC ([11]; BAA1870, C. difficile BAA-1870, Table 7, read-out: MIC): ≤ 0.25 µg/mL | MIC ([11]; C. difficile 23691 (VR, vancomycin-resistant), Table 7, read-out: MIC): 0.25 µg/mL (≈ 0.748 µM) | MIC ([11]; C. difficile 23828 (FR, fidaxomicin-resistant), Table 7, read-out: MIC): 0.125 µg/mL (≈ 0.374 µM) | MIC ([11]; C. difficile 24531 (VR, vancomycin-resistant), Table 7, read-out: MIC): 0.125 µg/mL (≈ 0.374 µM) | MIC ([11]; C. difficile 24923 (VR, vancomycin-resistant), Table 7, read-out: MIC): 0.125 µg/mL (≈ 0.374 µM) | MIC ([11]; C. difficile 26675 (MR, metronidazole-resistant), Table 7, read-out: MIC): 0.25 µg/mL (≈ 0.748 µM) | MIC ([11]; C. difficile 27081 (FR, fidaxomicin-resistant), Table 7, read-out: MIC): 0.125 µg/mL (≈ 0.374 µM) | MIC ([11]; C. difficile 27173 (MR, metronidazole-resistant), Table 7, read-out: MIC): 0.125 µg/mL (≈ 0.374 µM) | MIC ([11]; C. difficile NR49292, Table 7, read-out: MIC): 0.125 µg/mL (≈ 0.374 µM) | MIC ([11]; C. difficile NR49294, Table 7, read-out: MIC): 0.0625 µg/mL (≈ 0.187 µM) | MIC ([11]; C. difficile NR49302, Table 7, read-out: MIC): 0.0625 µg/mL (≈ 0.187 µM) | MIC ([11]; C. difficile NR49305, Table 7, read-out: MIC): 0.125 µg/mL (≈ 0.374 µM) | MIC ([11]; C. difficile NR49310, Table 7, read-out: MIC): 0.0625 µg/mL (≈ 0.187 µM) | MIC ([11]; C. difficile NR49318, Table 7, read-out: MIC): 0.125 µg/mL (≈ 0.374 µM) | MIC ([11]; C. difficile, Table 8, read-out: MIC): 0.25 µg/mL (≈ 0.748 µM) | MIC ([12]; MRSA NRS70, Table 7, read-out: MIC): 0.25 µg/mL (≈ 0.748 µM) | MIC ([12]; NRS70 strain, Table 2 (SAR^1), read-out: MIC MRSA): 0.25 µg/mL (≈ 0.748 µM) | MIC ([12]; NRS70 strain, Table 3 (SAR^2 and SAR^3), read-out: MIC MRSA): 0.25 µg/mL (≈ 0.748 µM)
SMILES: O=C(Nc1ncco1)c1ccnc(-c2ccc(Cl)c(Cl)c2)c1 [Compound 4, 2-(3,4-Dichlorophenyl)-N-(oxazol-2-yl)isonicotinamide]
Selectivity ([11]; MIC MRSA NRS70/MIC C. difficile ATCC43255, Table 7): 1 | Selectivity ([11]; MIC MRSA/MIC C. difficile, Table 3): 1 | Selectivity ([11]; Table 8): 1
